Results as given in the NIST ThermoML archive (doi:10.1016/j.jct.2003.09.013).
“And” between values parts separate entries of the source, which are not always exact repeats. Identical values can stand only once.

Experiment: mn = molality of the nth substance listed, in mol/kg
Settings: 350 kPa, Liquid; for molar volume: Vibrating tube method; for apparent molar heat capacity: Extra sensitive DSC

O=[N+]([O-])[O-].O=[N+]([O-])[O-].[Pb+2] [lead(II) nitrate] + O
Settings	apparent molar heat capacity [J/K/mol]	apparent molar volume	molar volume
278.15 K, m1 = 0.01959	–	3.11e-05 m3/mol	3.11e-05 m3/mol
278.15 K, m1 = 0.01983	–	3.8e-05 m3/mol	3.8e-05 m3/mol
278.15 K, m1 = 0.02999	–	3.7e-05 m3/mol and 3.36e-05 m3/mol	3.7e-05 m3/mol and 3.36e-05 m3/mol
278.15 K, m1 = 0.04862	–	3.8e-05 m3/mol	3.8e-05 m3/mol
278.15 K, m1 = 0.05035	–	3.73e-05 m3/mol	3.73e-05 m3/mol
278.15 K, m1 = 0.1004	–	3.52e-05 m3/mol and 4.01e-05 m3/mol	4.01e-05 m3/mol and 3.52e-05 m3/mol
278.15 K, m1 = 0.2435	–	3.781e-05 m3/mol	3.781e-05 m3/mol
278.15 K, m1 = 0.392	–	3.95e-05 m3/mol	3.95e-05 m3/mol
278.15 K, m1 = 0.4885	–	4.08e-05 m3/mol	4.08e-05 m3/mol
283.15 K, m1 = 0.01959	–	3.4e-05 m3/mol	3.4e-05 m3/mol
283.15 K, m1 = 0.01983	–	3.8e-05 m3/mol	3.8e-05 m3/mol
283.15 K, m1 = 0.02999	–	3.9e-05 m3/mol and 3.62e-05 m3/mol	3.9e-05 m3/mol and 3.62e-05 m3/mol
283.15 K, m1 = 0.04862	–	3.9e-05 m3/mol	3.9e-05 m3/mol
283.15 K, m1 = 0.05035	–	3.93e-05 m3/mol	3.93e-05 m3/mol
283.15 K, m1 = 0.1004	–	4.14e-05 m3/mol and 3.73e-05 m3/mol	4.14e-05 m3/mol and 3.73e-05 m3/mol
283.15 K, m1 = 0.2435	–	3.976e-05 m3/mol	3.976e-05 m3/mol
283.15 K, m1 = 0.392	–	4.126e-05 m3/mol	4.126e-05 m3/mol
283.15 K, m1 = 0.4885	4.5	4.243e-05 m3/mol	4.243e-05 m3/mol
288.15 K, m1 = 0.01959	–	3.508e-05 m3/mol	3.508e-05 m3/mol
288.15 K, m1 = 0.01983	–	3.8e-05 m3/mol	3.8e-05 m3/mol
288.15 K, m1 = 0.02999	–	3.9e-05 m3/mol and 3.71e-05 m3/mol	3.9e-05 m3/mol and 3.71e-05 m3/mol
288.15 K, m1 = 0.04862	–	3.96e-05 m3/mol	3.96e-05 m3/mol
288.15 K, m1 = 0.05035	–	4.05e-05 m3/mol	4.05e-05 m3/mol
288.15 K, m1 = 0.1004	–	4.12e-05 m3/mol and 3.851e-05 m3/mol	4.12e-05 m3/mol and 3.851e-05 m3/mol
288.15 K, m1 = 0.2435	–	4.073e-05 m3/mol	4.073e-05 m3/mol
288.15 K, m1 = 0.392	–	4.246e-05 m3/mol	4.246e-05 m3/mol
288.15 K, m1 = 0.4885	12.8	4.323e-05 m3/mol	4.323e-05 m3/mol
293.15 K, m1 = 0.4885	18.6	–	–
298.15 K, m1 = 0.01959	–	3.86e-05 m3/mol	3.86e-05 m3/mol
298.15 K, m1 = 0.01983	–	4.1e-05 m3/mol	4.1e-05 m3/mol
298.15 K, m1 = 0.02999	–	4.19e-05 m3/mol and 3.835e-05 m3/mol	4.19e-05 m3/mol and 3.835e-05 m3/mol
298.15 K, m1 = 0.04862	–	4.22e-05 m3/mol	4.22e-05 m3/mol
298.15 K, m1 = 0.05035	–	4.377e-05 m3/mol	4.377e-05 m3/mol
298.15 K, m1 = 0.1004	–	4.33e-05 m3/mol and 4.134e-05 m3/mol	4.33e-05 m3/mol and 4.134e-05 m3/mol
298.15 K, m1 = 0.2435	–	4.368e-05 m3/mol	4.368e-05 m3/mol
298.15 K, m1 = 0.392	2.9	4.54e-05 m3/mol	4.54e-05 m3/mol
298.15 K, m1 = 0.4885	22.3	4.567e-05 m3/mol	4.567e-05 m3/mol
303.15 K, m1 = 0.392	6	–	–
303.15 K, m1 = 0.4885	24.9	–	–
308.15 K, m1 = 0.01959	–	4.027e-05 m3/mol	4.027e-05 m3/mol
308.15 K, m1 = 0.01983	–	4.04e-05 m3/mol	4.04e-05 m3/mol
308.15 K, m1 = 0.02999	–	4.2e-05 m3/mol and 3.7e-05 m3/mol	4.2e-05 m3/mol and 3.7e-05 m3/mol
308.15 K, m1 = 0.04862	–	4.27e-05 m3/mol	4.27e-05 m3/mol
308.15 K, m1 = 0.05035	–	4.631e-05 m3/mol	4.631e-05 m3/mol
308.15 K, m1 = 0.1004	–	4.39e-05 m3/mol and 4.262e-05 m3/mol	4.39e-05 m3/mol and 4.262e-05 m3/mol
308.15 K, m1 = 0.2435	–	4.56e-05 m3/mol	4.56e-05 m3/mol
308.15 K, m1 = 0.392	8.2	4.698e-05 m3/mol	4.698e-05 m3/mol
308.15 K, m1 = 0.4885	26.6	4.739e-05 m3/mol	4.739e-05 m3/mol
313.15 K, m1 = 0.392	9.6	–	–
313.15 K, m1 = 0.4885	27.7	–	–
318.15 K, m1 = 0.01959	–	–	4.413e-05 m3/mol
318.15 K, m1 = 0.01983	–	–	4.13e-05 m3/mol
318.15 K, m1 = 0.02999	–	–	4.23e-05 m3/mol and 3.71e-05 m3/mol
318.15 K, m1 = 0.04862	–	–	4.32e-05 m3/mol
318.15 K, m1 = 0.05035	–	–	4.763e-05 m3/mol
318.15 K, m1 = 0.1004	–	–	4.49e-05 m3/mol and 4.36e-05 m3/mol
318.15 K, m1 = 0.2435	–	–	4.709e-05 m3/mol
318.15 K, m1 = 0.392	10.3	–	4.824e-05 m3/mol
318.15 K, m1 = 0.4885	27.8	–	–
